Experimental findings from patent US20240309043A1, “THERAPEUTICALLY ACTIVE STEROIDAL DERIVATIVES” (Organon R&D Finland Ltd., priority 2017, published 2024) are described below.

Holding throughout (format): biochemical
Assay [1] addresses T1, recombinant human 17β-HSD1 (Homo sapiens, UniProt P14061).
T1 construct: made in house; host or cells: Sd9 (Sf9) insect cells, baculovirus (Bac to Bac Expression System)
T1 sequence (P14061 1-328): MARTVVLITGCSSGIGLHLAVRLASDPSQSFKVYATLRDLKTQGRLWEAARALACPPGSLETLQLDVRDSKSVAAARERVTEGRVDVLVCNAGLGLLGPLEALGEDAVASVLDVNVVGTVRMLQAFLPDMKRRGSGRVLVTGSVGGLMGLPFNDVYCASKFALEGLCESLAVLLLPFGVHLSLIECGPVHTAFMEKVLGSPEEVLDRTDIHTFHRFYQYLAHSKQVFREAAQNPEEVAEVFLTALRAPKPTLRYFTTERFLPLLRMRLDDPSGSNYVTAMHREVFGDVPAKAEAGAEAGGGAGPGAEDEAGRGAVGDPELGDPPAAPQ
The assay is described as follows: Inhibition of recombinant human 17β-HSD1. Particulars: inhibitor 100 nM; 30 nM estrone, 1 mM NADPH, 30 min RT. How it is done:
17β-HSD1 production and isolation: Recombinant baculovirus was generated by the “Bac to Bac Expression System” (Invitrogen). Recombinant bacmid was transfected to Sd9 insect cells using “Cellfectin Reagent” (Invitrogen). 60 h later cells were harvested; the microsomal fraction was isolated as described by Puranen, T. J., Poutanen, M. H., Peltoketo, H. E., Vihko, P. T. and Vihko, R. K. (1994) Site-directed mutagenesis of the putative active site of human 17 β-hydroxysteroid dehydrogenase type 1. Biochem. J. 304: 289-293. Aliquots were stored frozen until determination of enzymatic activity.
Assay—Inhibition of recombinant human 17β-HSD1: Recombinant protein (1 μg/ml) was incubated in 20 mM KH2PO4 pH 7.4 with 30 nM estrone (including 800 000 cpm/ml of ^3H-estrone) and 1 mM NADPH for 30 min at RT, in the presence of the potential inhibitor at concentrations 1 μM or 0.1 μM. Inhibitor stock solutions were prepared in DMSO. Final concentration of DMSO was adjusted to 1% in all samples. The enzyme reaction was stopped by addition of 10% trichloroacetic acid (final concentration). Samples were centrifuged in a microtiter plate at 4000 rpm for 10 min. Supernatants were applied to reverse phase HPLC on a Waters Symmetry C18 column, equipped with a Waters Sentry Guard column. Isocratic HPLC runs were performed at RT at a flow rate of 1 ml/min in acetonitrile:water 48:52 as running solvent. Radioactivity was monitored in the eluate by a Scintillation Analyzer. Total radioactivity for estrone and estradiol were determined in each sample and percent conversion of estrone to estradiol was calculated according to the following formula:
(§1) [formula] Percent inhibition was calculated flowingly: % inhibition=100−% conversion

Assay [2] concerns the target T2, recombinant human 17β-HSD2 (Homo sapiens, UniProt P37059).
T2 construct: made in house; host or cells: Sd9 (Sf9) insect cells, baculovirus (Bac to Bac Expression System)
T2 sequence (P37059 1-387): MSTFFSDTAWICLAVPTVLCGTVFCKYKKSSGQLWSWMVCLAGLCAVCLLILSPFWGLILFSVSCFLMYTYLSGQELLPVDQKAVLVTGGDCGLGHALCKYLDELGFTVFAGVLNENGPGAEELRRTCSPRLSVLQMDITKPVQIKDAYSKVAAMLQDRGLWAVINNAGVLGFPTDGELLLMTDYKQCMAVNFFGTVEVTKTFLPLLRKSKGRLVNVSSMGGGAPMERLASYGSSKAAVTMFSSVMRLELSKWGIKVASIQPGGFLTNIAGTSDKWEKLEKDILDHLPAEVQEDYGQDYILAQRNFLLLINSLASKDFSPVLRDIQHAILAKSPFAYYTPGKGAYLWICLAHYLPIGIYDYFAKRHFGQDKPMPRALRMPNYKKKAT
The assay is described as follows: Inhibition of recombinant human 17β-HSD2. Particulars: inhibitor 1 μM; 50 nM estradiol, 1 mM NADH, 30 min RT. The protocol: 17β-HSD2 production and isolation: Similarly to 17β-HSD1 the Recombinant baculovirus was generated by the “Bac to Bac Expression System” (Invitrogen). Recombinant bacmid was transfected to Sd9 insect cells using “Cellfectin Reagent” (Invitrogen). 60 h later cells were harvested and supernatant were fractionated by the following protocol: • cells were dissolved into 40 ml of A-buffer (40 mM TRIS, pH 8.0, 20% glycerol, 20 μM NAD, 0.4 mM PMSF, 150 mM NaCl, 0.5% dodecyl-β-maltoside+protease inhibitor cocktail) • cells were sonicated • lysate was incubated on ice for 15 min • lysate was centrifuged 5000 rpm 15 min, +4° C. • centrifugation of the supernatant 180 000 g 30 min, +4° C. • pellet was dissolved into 8 ml of A-buffer • not resuspended material was removed by centrifugation 5000 rpm min, +4° C. • the clear supernatant was divided into 100 μl aliquots and were stored frozen until determination of enzymatic activity.
The amount of 17β-HSD2 was analysed by immunoblotting and total protein concentration of each extract batch was determined.
Assay—Inhibition of recombinant human 17β-HSD2: Recombinant protein (4 μg/ml) was incubated in 20 mM KH2PO4 pH 8.5 with 50 nM estradiol (including 800 000 cpm/ml of ^3H-estradiol) and 1 mM NADH for 30 min at RT, in the presence of the potential inhibitor at concentrations 1 μM or 0.1 μM. Inhibitor stock solutions were prepared in DMSO. Final concentration of DMSO was adjusted to 1% in all samples. The enzyme reaction was stopped by addition of 10% trichloroacetic acid (final concentration). Samples were centrifuged in a microtiter plate at 4000 rpm for 10 min. Supernatants were applied to reverse phase HPLC on a Waters Symmetry C18 column, equipped with a Waters Sentry Guard column. Isocratic HPLC runs were performed at RT at a flow rate of 1 ml/min in acetonitrile:water 48:52 as running solvent. Radioactivity was monitored in the eluate by a Scintillation Analyzer. Total radioactivity for estrone and estradiol were determined in each sample and percent conversion of estradiol to estrone was calculated according to the following formula:
as §1

Assay [3] relates to HSD1 enzyme that is expressed in rabbit placenta tissue. The experiment in a line: Inhibition of E1 to E2 conversion in rabbit placenta tissue homogenate. Particulars: inhibitor 100 nM, 30 nM estrone, 30 min. The protocol: The assay is based on an enzymatic reaction where HSD1 enzyme that is expressed in rabbit placenta tissue converts its natural substance estrone (E1) to estradiol (E2) in the presence of a co-factor β-NADPH.
Homogenization of rabbit placenta tissue: Weight a piece of the frozen tissue into a Precellys ck28 bead tube. Add buffer solution (20 mM KH2PO4 with 1 mM EDTA, pH 7,4) in 1:2 ratio (e.g. 300 mg of tissue:600 μl reaction buffer solution). Insert the bead tubes to homogenizer and homogenize 2×30 s. 6000 rpm. Centrifugated 5 min., 2600 rpm at +4° C. and collect supernatant. Aliquots of homogenate are stored in −80° C.
Assay—Inhibition of E1 to E2 conversion in rabbit placenta tissue: The reaction takes place in a buffer solution (20 mM KH2PO4 with 1 mM EDTA, pH 7,4), including appropriate amount of rabbit placenta homogenate, co-factor (1 mM β-NADPH), Substrate (30 nM estrone), labelled substrate as tracer (5 nM [^3H]-estrone). During a 30-minute incubation part of the estrone is converted to estradiol. The reaction is stopped by lowering the pH to 1 with 10% trichloro acetic acid (TCA). The substrate and conversion products are analyzed by HPLC and a Scintillation counter analyzer. Total radioactivity for estrone and estradiol were determined in each sample and percent conversion of estrone to estradiol was calculated according to the following formula:
Percent inhibition was calculated flowingly: % inhibition=100−% conversion.

For the molecule `C[C@]12CCC3c4cccc(F)c4CCC3C1[C@H](CCC(=O)Nc1nncs1)C/C2=N\O` (stereo partly drawn) [Compound 18, 3-((13S,15R,E)-4-fluoro-17-(hydroxyimino)-13-methyl-7,8,9,11,12,13,14,15,16,17-decahydro-6H-cyclopenta[a]phenanthren-15-yl)-N-(1,3,4-thiadiazol-2-yl)propanamide], the inhibition at 0.1 µM in assay [1] stood at 68%. Also, the inhibition at 1 µM in assay [2] turned out to be 14%. Besides, in assay [3], the “Rabbit placenta inhibition % @100 nM” value turned out to be 62%.
The matching figures for `CCN(CC)C(=O)CC[C@@H]1C/C(=N\O)[C@@]2(C)CCC3c4cccc(F)c4CCC3C12` (stereo partly drawn) [Compound 24, N,N-diethyl-3-((13S,15R,E)-4-fluoro-17-(hydroxyimino)-13-methyl-7,8,9,11,12,13,14,15,16,17-decahydro-6H-cyclopenta[a]phenanthren-15-yl)propanamide]: 85%, 12% and 18%.
For `C[C@]12CCC3c4ccc(F)cc4CCC3C1[C@H](CCC(=O)Nc1ccc(F)cn1)C/C2=N\O` (stereo partly drawn) [Compound 26, 3-((13S,15R,E)-3-fluoro-17-(hydroxyimino)-13-methyl-7,8,9,11,12,13,14,15,16,17-decahydro-6H-cyclopenta[a]phenanthren-15-yl)-N-(5-fluoropyridin-2-yl)propanamide] the same measures were 49%, 8% and 10%.
For `COc1ccc(NC(=O)CC[C@@H]2C/C(=N\O)[C@@]3(C)CCC4c5ccc(F)cc5CCC4C23)nc1` (stereo partly drawn) [Compound 28, 3-((13S,15R,E)-3-fluoro-17-(hydroxyimino)-13-methyl-7,8,9,11,12,13,14,15,16,17-decahydro-6H-cyclopenta[a]phenanthren-15-yl)-N-(5-methoxypyridin-2-yl)propanamide] the same measures were 74%, 7% and 48%.
`COc1ccc(NC(=O)CC[C@@H]2C/C(=N\O)[C@@]3(C)CCC4c5ccc(F)cc5CCC4C23)nn1` (stereo partly drawn) [Compound 30, 3-((13S,15R,E)-3-fluoro-17-(hydroxyimino)-13-methyl-7,8,9,11,12,13,14,15,16,17-decahydro-6H-cyclopenta[a]phenanthren-15-yl)-N-(6-methoxypyridazin-3-yl)propanamide]: the inhibition at 0.1 µM in assay [1] worked out at 40%. In addition, in assay [2], the inhibition at 1 µM was 3%. Besides, the “Rabbit placenta inhibition % @100 nM” value in assay [3] amounted to 79%.
As for `Cc1ccc(NC(=O)CC[C@@H]2C/C(=N\O)[C@@]3(C)CCC4c5ccc(F)cc5CCC4C23)nn1` (stereo partly drawn) [Compound 32, 3-((13S,15R,E)-3-fluoro-17-(hydroxyimino)-13-methyl-7,8,9,11,12,13,14,15,16,17-decahydro-6H-cyclopenta[a]phenanthren-15-yl)-N-(6-methylpyridazin-3-yl)propanamide], in assay [1], the inhibition at 0.1 µM was 35%. Moreover, in assay [2], the inhibition at 1 µM was 9%. Besides, in assay [3], the “Rabbit placenta inhibition % @100 nM” value worked out at 55%.
The matching figures for `CN(C(=O)CC[C@@H]1C/C(=N\O)[C@@]2(C)CCC3c4ccc(F)cc4CCC3C12)C1COC1` (stereo partly drawn) [Compound 36, 3-((13S,15R,E)-3-fluoro-17-(hydroxyimino)-13-methyl-7,8,9,11,12,13,14,15,16,17-decahydro-6H-cyclopenta[a]phenanthren-15-yl)-N-methyl-N-(oxetan-3-yl)propanamide]: 33%, 10% and 12%.
For `CCN(CC)C(=O)CC[C@@H]1C/C(=N\O)[C@@]2(C)CCC3c4ccc(F)cc4CCC3C12` (stereo partly drawn) [Compound 40, N,N-diethyl-3-((13S,15R,E)-3-fluoro-17-(hydroxyimino)-13-methyl-7,8,9,11,12,13,14,15,16,17-decahydro-6H-cyclopenta[a]phenanthren-15-yl)propanamide] the same measures were 46%, 6% and 6%.
For `C[C@]12CCC3c4ccc(Cl)cc4CCC3C1[C@H](CCC(=O)Nc1cccnn1)C/C2=N\O` (stereo partly drawn) [Compound 44, 3-((13S,15R,E)-3-chloro-17-(hydroxyimino)-13-methyl-7,8,9,11,12,13,14,15,16,17-decahydro-6H-cyclopenta[a]phenanthren-15-yl)-N-(pyridazine-3-yl)propanamide] the same measures were 20%, 2% and 11%.
As to `C[C@]12CCC3c4ccc(Cl)cc4CCC3C1[C@H](CCC(=O)NC1=NCCS1)C/C2=N\O` (stereo partly drawn) [Compound 46, 3-((13S,15R,E)-3-chloro-17-(hydroxyimino)-13-methyl-7,8,9,11,12,13,14,15,16,17-decahydro-6H-cyclopenta[a]phenanthren-15-yl)-N-(4,5-dihydrothiazol-2-yl)propanamide], in assay [1], the inhibition at 0.1 µM worked out at 55%. Further, the inhibition at 1 µM in assay [2] is 0%. Also, the “Rabbit placenta inhibition % @100 nM” value in assay [3] turned out to be 50%.

What is called inhibition is how much of the control response was suppressed.
